Data as given in US20230123635A1, “Compositions and Methods for Detecting Molecular Targets on Chromosomal DNA” (New England Biolabs, Inc., priority 2020, published 2023).

Tests used:
[1] = system: Nt.CviPII-Protein A; experiment: Inhibition of the nicking activity of Nt.CviPII-Protein A fusion by heparin sodium salt; type: biochemical; conditions: 2.5 units Nt.CviPII-Protein A, 0.5 μg pUC19 DNA, NEBuffer 2, 40 minutes 37° C.
Procedure: In lanes 1-9, 2.5 units of NEFP was added to 0.5 μgs of plasmid DNA in the presence of increasing amounts of heparin (0.15-10 mg/ml). Digestion was not observed when 0.3 mg heparin/ml or greater amounts are present.
To determine the effect of heparin sodium salt on the inhibition of nicking activities of Nt.CviPII-Protein A fusion, reaction tubes containing 10, 5, 2.5, 1.25, 0.62, 0.31, 0.15, and 0 mg/ml heparin, sodium salt were added to a 50 μl reaction, consisting of 5 μl 10×NEBuffer 2, 2.5 units Nt.CviPII-Protein A (as described in Example 1(B)), and 0.5 μg pUC19 DNA and incubated for 40 minutes 37° C. 10 μl of DNA loading dye mix (5×) was added to the samples and were resolved on a 10% polyacrylamide gel. The gel was stained with SYBR® Green (Molecular Probes, Eugene, Oreg.) and scanned on a Typhoon® imager (GE Healthcare Bio-Sciences, Marlborough, Mass.).

[2] = system: DNA-Nt.CviPII-Protein A complex; experiment: Gel-shift assay: dissociation of the DNA-Nt.CviPII-Protein A complex by heparin; type: binding; conditions: 3.2 μM Nt.CviPII-Protein A, NEBuffer 2 without magnesium, 50 μl
Procedure: Increasing amounts of heparin disrupts complex formation. Nicking activity is prevented by the absence of magnesium ions in the buffer.
From left to right: C is a control that is DNA in the absence of a NEFP or heparin. 0 is a control in which nicking endonuclease was added to DNA in the absence of heparin. The DNA-NEFP complex (DNA-Nt.CviPII-Protein A complex) is seen as a band at the top of the lane.
To establish that the inhibitory effect of heparin, sodium salt in untethered Nt.CviPII-Protein A fusion activity was due to selective dissociation between DNA substrate and fusion enzyme, a gel-shift assay was performed. Double stranded DNA substrate containing constant amounts of Nt.CviPII binding domains (CCA, 5′[…]-F, F=fluorescein (SEQ ID NO:9)) and 3.2 μM Nt.CviPII-Protein A fusion were combined in the presence of 1×NEBuffer 2 in the absence of magnesium for 30 minutes at room temperature to enable an enzyme-substrate complex to be formed. Increasing amounts of heparin, sodium salt (0, 2.3, 4.6, 1, 20, 42, 83, 166, 330 μg/ml) was added to the total 50 μl reaction volume. It was observed that a heparin concentration of greater than 0.2 mgs/ml (at least […]) enabled complete dissociation of the DNA-Nt.CviPII-Protein A complex as observed by the appearance of bands corresponding to DNA alone in a native 6% retardation gel (Thermo Fisher Scientific, Waltham, Mass.). […]

[3] = system: antibody-Protein A/G complex; experiment: Effect of heparin on the antibody-Protein A/G complex (magnetic beads, SDS gel); type: binding; conditions: 0.125, 0.25, 0.5 and 1 mg/ml Heparin, 30 minutes, room temperature, Protein A/G magnetic beads with IgG, sodium salt
Excerpt: The numbers on the top indicate added heparin quantity in the reaction mgs/ml.
Antibody heavy and light chains that are bound to Protein A/G can be released by boiling and resolved on an SDS gel (B). Any antibody that was free in solution having been eluted or displaced by heparin from Protein A/G could be visualized without boiling (E).
To determine the effect of heparin on the formation of the antibody-Protein A/G complex, 5 mgs of immobilized and covalently cross-linked protein A/G magnetic beads were bound to 50 μgs of IgG molecules in a 50 μl reaction volume containing 1×PBST at room temperature for 30 minutes. The complex was washed 3 times using 1 ml of 1×PBST and incubated with 0.125, 0.25, 0.5 and 1 mg/ml Heparin for 30 minutes at room temperature in 25 μl total volume. The bead-bound (B) and unbound or bead elution (E) fractions were collected, SDS sample buffer (New England Biolabs, Ipswich, Mass.) was added and the samples were incubated at 95° C. for 5 minutes. Both B and E samples were resolved on tricine 10% acrylamide gel and stained for protein.

[4] = system: pBR322 circular double stranded DNA; experiment: Nicking activity of Protein G/A-gHNH fusion on plasmid DNA (agarose gel); type: biochemical; conditions: 50 μl, 37° C., 1 hour; for amount of fusion enzyme giving complete nicking/digestion of DNA substrate: 1 μg pBR322, NEBuffer 2 with manganese ions (1 mM) instead of magnesium
Procedure: The nicking activity of Protein G-HNH was compared to a second non-fused nicking endonuclease (Nt.CviPII) (2 units) in the same gel to determine a generalized and consistent cleavage profile and was also compared to a control in the lane labeled 0 containing no nicking endonuclease either fused or unfused.
Protein G/A-gHNH fusion nicking activity was tested on pBR322 circular double stranded DNA using NEBuffer 2 in which magnesium ions were replaced by the same amount of manganese ions (1 mM). 1 μg of plasmid was used with 0.03 to 2 units of Protein G/A-gHNH fusion enzyme in a two-fold serial dilutions (2, 1, 0.5, 0.25, 0.125, 0.06, 0.03 units) in a total volume of 50 μl incubated at 37° C. for 1 hour. 10 μl of DNA loading dye mix (5×) was added to the nicked DNA. The nicked DNA samples were resolved on a 1% agarose gel and visualized under UV light. DNA fragment size was estimated along with 2 log DNA ladder (New England Biolabs, Ipswich, Mass.) and positive control Nt.CviPII (2 units) of the non-fused nicking endonuclease, (New England Biolabs, Ipswich, Mass.) digested pBR322 DNA (FIG. 1B). […] A representative figure supporting this conclusion is provided in FIG. 1B for Protein G-gHNH fusions.

Molecule | heparin concentration giving total inhibition of nicking (no digestion observed) [1] | heparin concentration giving total inhibition of nicking (no digestion observed) ([1]; listed as Heparin sodium salt) | heparin concentration enabling complete dissociation of the DNA-Nt.CviPII-Protein A complex (parenthesis) [2] | heparin concentration enabling complete dissociation of the DNA-Nt.CviPII-Protein A complex ([2]; native 6% retardation gel) | effect of heparin on antibody bound to Protein A/G ([3]; listed as Heparin) | effect of heparin on antibody bound to Protein A/G [3] | amount of fusion enzyme giving complete nicking/digestion of DNA substrate [4] | amount of fusion enzyme giving complete nicking/digestion of DNA substrate ([4]; listed as Protein G-gHNH fusion) | amount of fusion enzyme giving partial digestion of DNA ([4]; 1 μg pBR322, NEBuffer 2 with manganese ions)
heparin, sodium salt | ≥ 0.3 mg/mL | 0.15 to 0.31 mg/mL | at least 10 ng/μl | greater than 0.2 mgs/ml | cannot dissociate Protein A/G-antibody reaction | no elution or displacement of antibody occurred |  |  | 
Protein G-gHNH: NEFP: Protein G-linker-gHNH nicking endonuclease (SEQ ID NO: 5) (protein) MKGETTTEAVDAATAEKVFKQYANDNGVDGEWTYDDATKTFTVTEKPEVIDASELTPAVTTYKLVINGKTLKGETTTEAVDAATAEKVFKQYANDNGVDGEWTYDDATKTFTVTEKPEVIDASELTPAVTTYKLVINGKTLKGETTTKAVDAETAEKAFKQYANDNGVDGVWTYDDATKTFTVTEGSATIVKKPLRPCCEFHCYNLTRERYCEEHRYKEKETQQDKNRYYDRFKRDKESTAFYRSKAWERLREQALMRDKGLCLHCKNNRKIKVADMVDHIIPIKVDPSLKLKLENLQSLCNPCHNRKTAEDKKKYG |  |  |  |  |  |  | 0.25 units | greater than 0.06 units | 0.03 units
